Experimental findings from patent US6346389B1, “Method for selectively modulating the interactions between survivin and tubulin” (Yale University, priority 1998, dated 2002) are described below.

One test deals with BaF3 cells. The test can be described thus: Apoptosis inhibition in stable BaF3 transfectants after IL-3 withdrawal. The test is classed as cell-based, mouse. How it is done:
Apoptosis assay. […] Forty-eight hours after transfection, cells were fixed in 2% paraformaldehyde for 1 h and stained for β-galactosidase expression with 0.5 mg/ml 5-bromo-4-chloro-3-indolyl β-D-galactoside (Amersham), 5 mM potassium ferrocyanide, 5 mM potassium ferricyanide and 2 mM MgCl2 in PBS. β-Galactosidase-expressing cells were scored morphologically on an inverted microscope. In another series of experiments, BaF3 cells stably transfected with wild type or mutated Survivin constructs were washed, seeded in 96-well plates at 5×10^5/ml and cell viability was determined microscopically by trypan blue exclusion at increasing time intervals following IL-3 withdrawal, as described previously (Ambrosini, 1997).

For the next test, the system named is polymerized tubulin. Put plainly: Survivin-microtubule co-sedimentation through sucrose cushion with immunoblotting. The test is classed as binding, bovine. Particulars: purified tubulin, taxol. The procedure:
Survivin-microtubule interaction. To determine a potential association of Survivin with tubulin, microtubules were assembled in vitro by taxol treatment using HeLa cell extracts or purified bovine brain tubulin. Subconfluent cultures of HeLa cells were harvested, washed once in phosphate buffered saline and once in MES buffer (0.1 M2-[morpholino]ethane sulphonic acid, 1 mM EGTA, 1 mM MgSO4, pH 6.6). The cell pellet was combined with 2 volumes of MES buffer and disrupted with a Dounce tissue grinder. The lysate was spun for 5 min at 12,000 rpm at 4° C. and the resulting supernatant was centrifuged at 164,000×g for 1 h at 4° C. in a TLA100 rotor (Beckman Instruments). For microtubule assembly, 200 μl aliquots of HeLa cell extracts (4 mg/ml protein) or 1 mg/ml of purified tubulin in MES buffer were supplemented with 1 mM GTP and incubated with 20 μM taxol or 40 μM nocodazole for 30 min at 37° C. Microtubule samples were then mixed with 4 μg of recombinant wild type Survivin or coil-less Survivin for an additional 30 min at 22° C. and loaded on 1 ml of 10% sucrose cushion in MES buffer containing 2 μM taxol. After centrifugation at 30,000×g for 30 min at 30° C. in a TLA100 rotor, equal amounts of the supernatants and pellets were analyzed by Coomassie blue staining and immunoblotting with the anti-Survivin antibody.
(In general: Immunoblotting shows a protein as a band on a membrane.)

For the substance “Cys84→Ala: loss-of-function Survivin BIR mutant”, the “Anti-apoptotic function following IL-3 withdrawal” value with BaF3 cells is given as “complete loss of anti-apoptotic function”. In addition, the “Association with taxol-treated tubulin” value with polymerized tubulin was “quantitatively indistinguishable from that of wild type Survivin”.
